Here are results for two compounds from patent US12291553B2, “Non-opioid anti-pain medication” (priority 2020, dated 2025).

SMILES strings stand for the structures. Where two headings read alike, the source gives them in different places. Residues, ends and D or L forms follow the SMILES beside them. *: point of attachment. Cbz = O=C(OCc1ccccc1)*; OtBu = CC(C)(C)O*

The IC50 is the point on the concentration scale where inhibition reaches its midpoint.

The target of series [1] is T1, FGF13-1b:Nav1.6 channel (Homo sapiens, UniProt Q9UQD0).
T1 construct: expressed in transfected cells; host or cells: HEK-Nav1.6 cells
T1 sequence (Q9UQD0 whole entry): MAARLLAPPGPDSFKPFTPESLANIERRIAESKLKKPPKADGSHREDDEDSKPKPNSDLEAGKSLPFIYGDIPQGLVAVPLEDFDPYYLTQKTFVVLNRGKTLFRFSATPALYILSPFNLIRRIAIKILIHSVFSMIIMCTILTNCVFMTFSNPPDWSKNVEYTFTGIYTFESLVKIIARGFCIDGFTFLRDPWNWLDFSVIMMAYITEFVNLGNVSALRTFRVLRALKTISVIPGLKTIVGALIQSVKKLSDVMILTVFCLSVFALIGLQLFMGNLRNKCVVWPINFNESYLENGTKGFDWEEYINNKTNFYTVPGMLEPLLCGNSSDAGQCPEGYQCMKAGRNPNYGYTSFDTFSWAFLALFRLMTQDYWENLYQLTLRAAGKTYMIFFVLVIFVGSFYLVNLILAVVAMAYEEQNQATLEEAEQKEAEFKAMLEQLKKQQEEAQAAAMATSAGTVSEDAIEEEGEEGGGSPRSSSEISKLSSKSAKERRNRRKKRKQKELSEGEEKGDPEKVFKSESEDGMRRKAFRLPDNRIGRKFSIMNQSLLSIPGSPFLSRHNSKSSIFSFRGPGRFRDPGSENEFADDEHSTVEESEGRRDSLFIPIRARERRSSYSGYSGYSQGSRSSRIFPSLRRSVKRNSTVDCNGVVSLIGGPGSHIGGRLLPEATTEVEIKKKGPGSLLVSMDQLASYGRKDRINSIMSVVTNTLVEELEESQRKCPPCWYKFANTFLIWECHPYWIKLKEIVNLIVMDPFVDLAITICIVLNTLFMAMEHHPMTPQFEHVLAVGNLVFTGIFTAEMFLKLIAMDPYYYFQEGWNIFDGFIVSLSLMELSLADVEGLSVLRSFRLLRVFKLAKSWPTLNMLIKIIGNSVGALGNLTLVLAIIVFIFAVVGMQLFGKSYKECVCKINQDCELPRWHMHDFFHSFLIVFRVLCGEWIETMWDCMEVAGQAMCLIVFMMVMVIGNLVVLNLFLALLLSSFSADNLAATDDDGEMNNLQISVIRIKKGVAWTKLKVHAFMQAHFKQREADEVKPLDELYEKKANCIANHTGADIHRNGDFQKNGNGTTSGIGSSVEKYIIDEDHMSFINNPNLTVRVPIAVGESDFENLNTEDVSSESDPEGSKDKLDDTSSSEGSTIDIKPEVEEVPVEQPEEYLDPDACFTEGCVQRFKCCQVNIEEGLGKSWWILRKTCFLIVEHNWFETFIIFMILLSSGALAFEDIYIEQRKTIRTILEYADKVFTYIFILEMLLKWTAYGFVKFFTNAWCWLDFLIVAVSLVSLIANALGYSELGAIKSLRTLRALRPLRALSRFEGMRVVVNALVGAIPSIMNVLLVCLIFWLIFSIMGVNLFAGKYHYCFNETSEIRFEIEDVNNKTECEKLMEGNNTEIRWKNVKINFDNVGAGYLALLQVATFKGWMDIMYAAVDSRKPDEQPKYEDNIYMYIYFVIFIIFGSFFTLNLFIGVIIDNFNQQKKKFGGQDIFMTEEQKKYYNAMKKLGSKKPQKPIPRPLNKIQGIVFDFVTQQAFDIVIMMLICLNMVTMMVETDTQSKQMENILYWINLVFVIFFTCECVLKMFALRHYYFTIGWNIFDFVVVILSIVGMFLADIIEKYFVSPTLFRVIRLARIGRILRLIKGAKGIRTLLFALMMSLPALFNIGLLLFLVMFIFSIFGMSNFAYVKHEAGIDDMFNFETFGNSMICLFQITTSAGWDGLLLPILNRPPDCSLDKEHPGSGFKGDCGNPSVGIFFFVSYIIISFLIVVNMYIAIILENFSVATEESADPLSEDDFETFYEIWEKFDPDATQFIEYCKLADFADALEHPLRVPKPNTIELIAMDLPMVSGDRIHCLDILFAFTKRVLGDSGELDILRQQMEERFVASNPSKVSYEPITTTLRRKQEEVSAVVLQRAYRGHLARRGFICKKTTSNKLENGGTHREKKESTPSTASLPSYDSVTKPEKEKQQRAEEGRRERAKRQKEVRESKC
Put plainly: Patch-clamp, steady-state inactivation in HEK-Nav1.6 cells expressing FGF13-1b. The class given is cell-based. As to the method: FIG. 6. […] HEK-Nav1.6 cells were transiently expressing GFP, FGF13-1b-GFP or FGF13-1a-GFP in the presence of DMSO (blue, red and dark red) 50 μM PW164 (black, green, dark green) A, Normalized current as a function of voltage (voltage dependence of steady-state inactivation) with Boltzmann fitting B Bar graph represents V1/2 of steady state inactivation. C. Normalized conductance (G/Gmax) as a function of voltage (voltage dependence of activation) with Boltzmann fitting. D. Bar graph represents V1/2 of activation. Data are represented as mean±SEM; n=4-8 cells per group. **p<0.01; One-WAY ANOVA, post-hoc Bonferroni.
(§1) Based on the success of other PPI regulators targeting ion channels we used the same rationale of selecting compounds that could act as a FGF13 isoform specific blocking FGF13-1b isoform effects mimicking FGF13-1a and select PW164 for functional assays. We used patch-clamp electrophysiology and begun functional validation of the lead compound using a panel of biophysical protocols targeting Nav channels (FIG. 5, 6).
A general note: The patch-clamp technique gives a direct electrical read-out from membranes.

Series [2] deals with T2, FGF13-1b:Nav1.6 C-tail complex (Homo sapiens, UniProt Q9UQD0).
T2 construct: luciferase fragment (split-luciferase half); expressed in transfected cells
T2 sequence (Q9UQD0 1763-1980 limits assumed, one chain of several): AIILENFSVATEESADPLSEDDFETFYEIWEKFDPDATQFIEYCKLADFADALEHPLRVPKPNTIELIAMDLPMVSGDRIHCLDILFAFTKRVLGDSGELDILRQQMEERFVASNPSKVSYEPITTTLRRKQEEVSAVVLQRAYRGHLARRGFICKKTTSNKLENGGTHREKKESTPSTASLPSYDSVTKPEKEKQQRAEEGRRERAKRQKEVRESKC
The series can be described thus: Split-luciferase complementation assay (LCA), FGF13-1b:Nav1.6 C-tail complex. The class given is cell-based. The following applies: LCA dose response, normalized to 0.5% DMSO; read-out: IC50, prevention of FGF13:Nav1.6 complex assembly.
Excerpt: In-cell reconstitution of FGF13: Nav1.6 complexes using the split-luciferase assay. […] B. Luminescence-based complementation assay (LCA) of the FGF13-1a:Nav1.6 (solid dots) and FGF13-1b:Nav1.6 C-tail complex (open dots); control conditions are depicted in black; corresponding dark red dots refer to LCA complexes in the presence of the tyrosine kinase inhibitor MNS used as negative control.

In series [3] the test system is mechanical hypersensitivity at the surgical wound. The series can be described thus: Plantar incision model of post-operative pain. It is filed as in vivo, mice. The following applies: administered to the wound, 3 μL. The text has this:
FIG. 10. […] After plantar incision, mice develop profound mechanical hypersensitivity to LVF at the surgical wound (scheme).

The target of series [4] is T3, full length luciferase (Photinus pyralis, UniProt P08659).
T3 construct: PW164 has no effect on full length luciferase in transiently transfected HEK293 cells; expressed in transfected cells; host or cells: HEK293
T3 sequence (P08659 whole entry, species assumed): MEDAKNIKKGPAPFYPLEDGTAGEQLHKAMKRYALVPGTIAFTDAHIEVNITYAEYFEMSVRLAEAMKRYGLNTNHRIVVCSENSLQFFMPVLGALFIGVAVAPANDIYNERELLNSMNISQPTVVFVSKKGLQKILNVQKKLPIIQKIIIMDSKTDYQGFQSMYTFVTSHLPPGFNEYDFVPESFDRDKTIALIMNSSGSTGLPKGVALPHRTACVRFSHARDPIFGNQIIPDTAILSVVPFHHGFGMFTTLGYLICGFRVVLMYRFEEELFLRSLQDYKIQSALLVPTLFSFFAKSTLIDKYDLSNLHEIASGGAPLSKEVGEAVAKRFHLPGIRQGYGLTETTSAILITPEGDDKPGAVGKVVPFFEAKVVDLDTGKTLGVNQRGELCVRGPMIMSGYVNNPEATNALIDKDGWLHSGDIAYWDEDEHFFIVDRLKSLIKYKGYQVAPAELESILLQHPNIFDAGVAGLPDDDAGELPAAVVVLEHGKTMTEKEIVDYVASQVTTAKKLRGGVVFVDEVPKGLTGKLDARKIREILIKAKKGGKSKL
Put plainly: Full length luciferase counter-screen in transiently transfected HEK293 cells. It is filed as cell-based. The text has this: (§2) FIG. 3. PW164 inhibits FGF13-1b but not FGF13-1a binding to the Nav1.6 C-tail. […] Data are normalized with respect to 0.5% DMSO (vehicle). (C) PW164 has no effect on full length luciferase in transiently transfected HEK293 cells. (D) PW164 is not toxic toward HEK293 cells using the LDH cytotoxicity assay.
For orientation: Counterscreens check selectivity or assay interference.

For series [5], the target named is T4, FGF13-1a:Nav1.6 (Homo sapiens, UniProt Q9UQD0).
T4 construct: luciferase fragment (split-luciferase half); expressed in transfected cells
T4 sequence (Q9UQD0 1763-1980 limits assumed): as the sequence (Q9UQD0 1763-1980 limits assumed, one chain of several) above
The series can be described thus: Split-luciferase complementation assay (LCA), FGF13-1a:Nav1.6 complex. It is filed as cell-based. The following applies: LCA dose response, normalized to 0.5% DMSO.
Excerpt: FIG. 2. In-cell reconstitution of FGF13: Nav1.6 complexes using the split-luciferase assay. A. Principle of split-luciferase assay. B. Luminescence-based complementation assay (LCA) of the FGF13-1a:Nav1.6 (solid dots) and FGF13-1b:Nav1.6 C-tail complex (open dots); control conditions are depicted in black; corresponding dark red dots refer to LCA complexes in the presence of the tyrosine kinase inhibitor MNS used as negative control. C,D. Summary bar graphs depicting assay robustness with respective Z′ score calculations for each LCA complex.
as §2

Series [6] deals with capsaicin-induced mechanical hypersensitivity. The series can be described thus: Capsaicin-induced pain model, von Frey mechanical hypersensitivity. The class given is in vivo, mice.
The nature of series [7]: DMPK profile, oral and intravenous dosing. The following applies: oral 20 mg/kg, mouse. It is filed as in vivo.
Experimental: Relevant parameters such as half-time (t1/2), maximal concentration (Cmax), area under the curve (AUC), apparent volume of distribution at steady state (Vss), clearance (CL) and bioavailability (% F) were calculated in a mouse model.
Series [8] can be described thus: Plasma metabolic stability. It is filed as in vitro ADME. As to the method: (§3) FIG. 12. In vitro studies of PW164 plasma and blood metabolic stability in rodent and preclinical human models. Intestinal absorption using the P-glycoprotein (P-gp) inhibition (IC50) assay as well as activity against the human cardiac ERG channel (hERG) as well as liver toxicity tests against various isoforms of the cytochrome P450 were conducted. […] This might be favorable for peripheral therapeutics with the advantage of no brain-associated side toxicity effects.

For series [9], the system named is cytochrome P450. Put plainly: Cytochrome P450 isoform tests. The class given is in vitro ADME. The settings on record: various isoforms. As to the method: as §3
The subject of series [10] is HEK293 cells. It is filed as cell-based.
Excerpt: as §2

Series [11] is described as follows: Whole blood stability. The class given is in vitro ADME. As to the method: as §3
For series [12], the target named is T5, Nav1.6 (Homo sapiens, UniProt Q9UQD0).
T5 construct: expressed in transfected cells; host or cells: HEK-Nav1.6 cells
T5 sequence (Q9UQD0 whole entry): as the sequence (Q9UQD0 whole entry) above
Put plainly: Patch-clamp, Na+ transient currents in HEK-Nav1.6 cells. The class given is cell-based. The following applies: 50 μM. As to the method:
FIG. 5. […] A. Representative traces of Na+ transient currents (INa+) recorded from HEK-Nav1.6 cells transiently expressing the indicated constructs in response to depolarizing voltage steps in the presence of 50 μM PW164 or DMSO. B. Current-voltage relationship (I-V) derived from A. C. Summary bar graphs derived from A,B. Data are represented as mean±SEM; n=4-8 cells per group. *p<0.05; One-WAY ANOVA, post-hoc Bonferroni.
as §1

Series [13] concerns normal mechanical sensitivity. The settings on record: mouse, in vivo.
Experimental: (§4) Schemes illustrate the experimental design testing the effect of local and intrathecal PW164 on normal mechanical sensitivity (left) and capsaicin-induced mechanical hypersensitivity (right), respectively. […] Drugs were given at the indicated concentrations in a final injected volume of 3 ul (A) or 5 ul (B); in panel B, drugs were injected 30 min after Cap injection.
(§5) In animals, hypersensitivity is manifested as increased withdrawals from von Frey filament stimulations of the injection site (FIG. 7).
The target in series [14] is human cardiac ERG channel (hERG) (Homo sapiens, UniProt Q12809). The series can be described thus: hERG channel activity. As to the method:
as §3
For orientation: hERG is a cardiac potassium channel; its block is linked to QT prolongation.

Series [15] deals with normal mechanical sensitivity. The series can be described thus: Normal mechanical sensitivity, von Frey stimulation of normal skin. The settings on record: intraplantar injection, 3 ul.
Experimental: as §4, §5

Sequence of human cardiac ERG channel (hERG) (Q12809 whole entry): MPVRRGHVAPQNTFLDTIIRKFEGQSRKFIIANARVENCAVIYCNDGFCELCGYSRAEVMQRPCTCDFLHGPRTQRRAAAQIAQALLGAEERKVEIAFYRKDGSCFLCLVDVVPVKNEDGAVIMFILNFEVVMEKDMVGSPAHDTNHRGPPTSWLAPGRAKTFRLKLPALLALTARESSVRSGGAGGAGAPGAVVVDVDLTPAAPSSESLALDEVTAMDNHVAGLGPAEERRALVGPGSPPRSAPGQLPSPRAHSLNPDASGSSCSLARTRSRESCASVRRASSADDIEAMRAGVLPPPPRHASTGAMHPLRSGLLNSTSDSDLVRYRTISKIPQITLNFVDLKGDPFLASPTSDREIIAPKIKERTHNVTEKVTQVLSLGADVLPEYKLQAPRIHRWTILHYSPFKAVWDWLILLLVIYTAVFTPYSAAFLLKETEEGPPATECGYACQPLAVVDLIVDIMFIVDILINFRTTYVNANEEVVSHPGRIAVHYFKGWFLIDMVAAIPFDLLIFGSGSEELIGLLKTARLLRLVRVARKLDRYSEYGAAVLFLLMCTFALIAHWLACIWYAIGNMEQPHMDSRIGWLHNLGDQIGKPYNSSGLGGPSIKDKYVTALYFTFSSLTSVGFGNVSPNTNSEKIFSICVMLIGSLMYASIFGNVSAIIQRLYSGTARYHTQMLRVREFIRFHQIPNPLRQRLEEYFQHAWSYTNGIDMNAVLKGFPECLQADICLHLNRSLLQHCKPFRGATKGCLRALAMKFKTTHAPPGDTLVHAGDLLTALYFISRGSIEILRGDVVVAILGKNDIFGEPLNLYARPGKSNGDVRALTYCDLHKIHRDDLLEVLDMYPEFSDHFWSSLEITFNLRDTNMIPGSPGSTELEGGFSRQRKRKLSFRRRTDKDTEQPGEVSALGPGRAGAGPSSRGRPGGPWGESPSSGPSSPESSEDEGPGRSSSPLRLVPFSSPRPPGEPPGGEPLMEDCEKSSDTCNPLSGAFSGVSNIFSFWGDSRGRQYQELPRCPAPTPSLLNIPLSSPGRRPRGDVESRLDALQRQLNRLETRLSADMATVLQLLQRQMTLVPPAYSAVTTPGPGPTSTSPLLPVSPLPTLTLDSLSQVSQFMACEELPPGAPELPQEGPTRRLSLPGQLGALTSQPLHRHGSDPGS

With `COC(=O)[C@@H](NC(=O)[C@H](CCC(=O)OC(C)(C)C)NC(=O)[C@H](CC(C)C)NC(=O)[C@@H]1CCCN1C(=O)OCc1ccccc1)C(C)C` [PW164, Benzyl(S)-2-(((S)-1-(((S)-5-(tert-butoxy)-1-(((S)-1-methoxy-3-methyl-1-oxobutan-2-yl)amino)-1,5-dioxopentan-2-yl)amino)-4-methyl-1-oxopentan-2-yl)carbamoyl) pyrrolidine-1-carboxylate] (Cbz-PLE(OtBu)V-OMe), in series [1] (50 μM, HEK-Nav1.6 cells expressing FGF13-1b-GFP), the “Availability of FGF13-1b:Nav1.6 channel pool” value is recorded as “decreases availability”. For the same compound, the “Shift in V1/2 of steady-state inactivation” value in series [1] (in the presence of FGF13-1b) was “hyperpolarizing shift”. Besides, in series [2], the IC50 came to 17.8 µM. Besides, the “Mechanical hypersensitivity to LVF at surgical wound” value in series [3] is “inhibits the hypersensitivity”. Besides, the “Effect on full length luciferase” value in series [4] was “no effect”. Moreover, the “Effect on FGF13-1A binding to Nav1.6” value in [5] is on record as “does not have a significant effect”. For the same compound, the Capsaicin-induced mechanical hypersensitivity result in series [6] (intrathecal, 5 ul, 30 min after capsaicin) is reported as “does not inhibit”. The “Duration of effect compared to bupivacaine” value in series [6] (local injection at capsaicin site) is given as “longer-lasting effects without completely blocking mechanical sensation”. In addition, in series [6] (local injection at capsaicin site, 30 min after capsaicin, 3 ul), the “Mechanical hypersensitivity to LVF and HVF von Frey stimulation” value is “dose-dependently inhibits mechanical hypersensitivity”. Besides, the Oral bioavailability entry in series [7] (intravenous 10 mg/kg) was “moderate”. Also, the Oral half-life result in [7] is listed as “moderate”. Also, the “Human plasma metabolic stability” value in [8] was “high”. Also, the CYP450s liability result in series [9] is “no hERG and CYP450s liabilities”. The “Cytotoxicity (LDH)” value in series [10] is recorded as “not toxic”. The “Human whole blood stability” value in series [11] is “high”. Besides, the “Effect on Na+ transient currents” value in series [12] was “acts as a FGF13-1a mimic on transient Na+ currents”. For the same compound, the “Normal mechanical sensation, paw withdrawal response to LVF and HVF” value in [13] is given as “no changes in paw withdrawal response”. For the same compound, the hERG liability entry in series [14] was “no hERG and CYP450s liabilities”.
In the case of `CCCCN1CCCCC1C(=O)Nc1c(C)cccc1C` (stereo not shown) [bupivacaine], the “Normal mechanical sensation, paw withdrawal response to LVF and HVF” value in [15] is listed as “complete sensory block”.
